Assays:
[1] = tested on: rhIL-17A stimulated G-CSF production in normal human keratinocytes (NHK); experiment: NHK G-CSF assay with rhIL-17A stimulation; type: cell-based; conditions: for inhibition of IL-17 stimulated G-CSF production: concentrations tested, FIGS. 2A and 2C; for dose dependent G-CSF levels: various doses, FIG. 3
[2] = tested on: IL-β secretion by LPS stimulated hPBMCs; conditions: Wadsworth et al. 1999, read-out: IC50 (Literature), inhibition of IL-β secretion; cited from earlier work
[3] = tested on: TNFa secretion by LPS stimulated hPBMCs; conditions: Wadsworth et al. 1999, read-out: IC50 (Literature), inhibition of TNFa secretion; cited from earlier work
[4] = tested on: IL-17A-stimulated gene panel in NHKs; experiment: QuantiGene Plex gene panel expression, NHK stimulated with recombinant IL-17A; type: cell-based, human; conditions: NHKs stimulated with recombinant IL-17A, FIGS. 5A and 5B
Description: (§1) A panel of IL-17A-stimulated genes was identified, initially through microarray experiments and later confirmed by RT-PCR, to assess modulators of the IL-17 pathway as shown in Table 2. Expression levels of the genes in the panel were measured using QuantiGene® Plex Gene Expression assay in human keratinocytes treated with human recombinant IL-17A and compounds as described in Example 1.
After the 24 hour incubation with IL-17A with and without compounds, 50 μl Lysis buffer (QuantiGene, ThermoFisher) was added to each well containing 100 μl cells. The plate was covered and incubated for 30 minutes in a VorTemp set at 50-55° C., 170 rpm to lyse the cells. The plate was then kept frozen at −80° C. On the day of QuantiGene experiments, samples and reagents were prepared and assay was conducted according the manufacturer's protocol (QuantiGene, ThermoFisher). At the final step, the sample plate was read on a Luminex MagPix® instrument (Luminex; Austin, Tex.) for fluorescent intensity signals.
The raw expression value of a given gene (g) in a sample (S) was quantified as the median of raw fluorescent intensity of the corresponding probe. Normalization factor of each sample S was determined by the raw expression of four housekeeping genes, ACTB, GAPDH, HPRT1, and PPIB, as the ratio of the geometric mean (geomean) of the four housekeeping genes in sample S vs. the geomean of the four housekeeping genes among all samples. The normalized expression value of each gene in sample S was further quantified as the raw expression value divided by the normalization factor in sample S.
Changes in expression of gene g in keratinocytes in response to IL-17A stimulation was calculated as the ratio of the geomean of its normalized expression values in IL-17A stimulated samples vs. that in unstimulated samples. For each gene g, the relative expression value in sample S (Rel_Exp_S) was further determined by its normalized expression in sample S (Norm_Exp_S) and the geomeans of its normalized expression in IL-17A stimulated samples (GM_Norm_Exp_Stim) and unstimulated samples (GMNorm_Exp_UnStim), using formula as: Rel_Exp_S=(Norm_Exp_S−GM_Norm_Exp_UnStim)/(GM_Norm_Exp_Stim−GM_Norm_Exp_UnStim).

[5] = tested on: normal human keratinocytes (NHK); experiment: CellTiter-Glo Luminescent Cell Viability Assay of NHK cells; type: cell-based; conditions: FIG. 2B
Description: To test whether treatment with IL-17 or compounds affected cell viability, cells were tested with CellTiter-Glo® Luminescent Cell Viability Assay (Promega; Madison, Wis.) according to manufacturer's protocol.
The substrate vial and the buffer solution were equilibrated at room temperature before reconstitution. The lyophilized substrate solution was reconstituted by adding the appropriate volume of buffer to the substrate vial. After brief mixing, equal volumes of the reconstituted reagent were added to the volume of media in each well of the plate containing cells. The plate was shaken briefly to mix and incubated at room temperature for 10 minutes then luminescent signal was read using an Envision plate reader.
Percent cell viability was calculated as:
% viability=((Sample RLU/No stimulation Avg,RLU)*100).

[6] = tested on: Th17 conditioned media stimulated G-CSF production in normal human keratinocytes (NHK); experiment: NHK G-CSF assay with Th17 conditioned media stimulation; type: cell-based; conditions: for inhibition of G-CSF production: NHK, Th17 conditioned media, FIG. 4A; for IC50: Th17 conditioned media stimulated NHK (footnote 15)
Description: In order to test potential modulators of the IL-17 pathway, normal human keratinocytes (NHK) were incubated with either recombinant IL-17A or Th17 conditioned media and potential inhibitor compounds, and then levels of granulocyte colony-stimulating factor (G-CSF) in the cell supernatant were measured as described in detail below.
Peripheral blood mononuclear cells (PBMCs) were isolated from human whole blood using Ficoll-Paque density gradient centrifugation (Ficoll-Paque, GE, 17-1440-03) using SepMate tubes (StemCell technologies, 85450). […] CD4+ T cells were isolated through manual magnetic labeling and cell separation (LS column, Miltenyi Biotec, 130-042-401) following vendor protocol (Miltenyi Biotec, 130 533). CD4+ T cells were seeded on 24-well plates at 2×10^6 cells/mL in 500 μL of RPMI Media (RPMI 1640, Hyclone, SH30096.01) supplemented with 10% FBS, penicillin-streptomycin (Sigma, P0781-100 ml), L-glutamine (Sigma, G7513-100ML), and 2-Mercaptoethanol (Gibco, 21985-023). Th17 polarization media was prepared in RPMI media and 250 μL was added to each well at a final concentration of: anti-CD3/anti-CD28 beads, prepared using T cell activation/expansion kit (Miltenyi Biotec, 130-091-441), at 2× cell number per well, anti-human interleukin-4 (IL-4) [10 ug/mL], anti-human interferon gamma (IFNγ) [10 ug/mL] antibodies (ThermoFisher, 16-7048-85, 16-7318-85), human IL-2 [60 U/mL] (Pepro Tech, 200-02), human IL-1β [10 ng/mL], human IL-23 [10 ng/mL], human IL-6 [50 ng/mL], and human TGFβ [12 ng/mL] (R&D Systems, 201-LB-010, 1290-IL-010, 206-IL-010, 240-B-010). […] The level of human IL-17A in Th17 conditioned media was determined using DuoSet ELISA kits following the vendor protocol (R&D Systems, DY317-05, DY5194-05, DY1335B-05). Human IL-17A was detected in Th17 conditioned media, while unstimulated, undifferentiated CD4+ T cells had no detectable level of IL-17A in the supernatant (FIG. 1). […]
After overnight culture, cell supernatant was carefully collected for G-CSF detection, and cells were further analyzed for viability or gene expression
G-CSF levels were measured using the Human G-CSF Homogeneous Time Resolved Fluorescence (HTRF) Assay kit (Cisbio, Cat. No. 63ADK055PEB1; Codolet, France) according to the manufacturer's protocol. G-CSF is detected in a sandwich assay format using different specific antibodies, one labeled with Eu3+-Cryptate (donor) and the second with d2 (acceptor). When the dyes are in close proximity, the excitation of the donor with a light source (laser or flash lamp) triggers a Fluorescence Resonance Energy Transfer (FRET) towards the acceptor, which in turn fluoresces at a specific wavelength (665 nm). […]

[7] = tested on: Th17 conditioned media stimulated gene panel in NHKs; experiment: QuantiGene Plex gene panel expression, NHK stimulated with Th17 conditioned media; type: cell-based, human; conditions: FIG. 6
Description: Peripheral blood mononuclear cells (PBMCs) were isolated from human whole blood using Ficoll-Paque density gradient centrifugation (Ficoll-Paque, GE, 17-1440-03) using SepMate tubes (StemCell technologies, 85450). […] CD4+ T cells were isolated through manual magnetic labeling and cell separation (LS column, Miltenyi Biotec, 130-042-401) following vendor protocol (Miltenyi Biotec, 130 533). CD4+ T cells were seeded on 24-well plates at 2×10^6 cells/mL in 500 μL of RPMI Media (RPMI 1640, Hyclone, SH30096.01) supplemented with 10% FBS, penicillin-streptomycin (Sigma, P0781-100 ml), L-glutamine (Sigma, G7513-100ML), and 2-Mercaptoethanol (Gibco, 21985-023). […] The level of human IL-17A in Th17 conditioned media was determined using DuoSet ELISA kits following the vendor protocol (R&D Systems, DY317-05, DY5194-05, DY1335B-05). Human IL-17A was detected in Th17 conditioned media, while unstimulated, undifferentiated CD4+ T cells had no detectable level of IL-17A in the supernatant (FIG. 1).
as §1, with “1. […]” for “1.”

[8] = Homo sapiens, Keratinocyte, rhIL-17A stimulated NHK assay (footnote 14), 5 ng/ml rhIL-17A
[9] = rhIL-17A stimulated NHK assay (footnote 14), 5 ng/ml rhIL-17A

Compound | IC50 [1, 8] | inhibition of IL-17 stimulated G-CSF production ([1]; NHK, rhIL-17A) | dose dependent G-CSF levels ([1]; NHK, rhIL-17A) | expression of the gene panel [4] | inhibition of G-CSF production [6] | IC50 [6] | IC50 [1, 9] | expression of the gene panel [7] | other results
Cc1nonc1C(=O)N[C@H](c1cn2ncc([C@H](NC(=O)CCC(F)(F)F)C3CC3)cc2n1)C1CCC(F)(F)CC1 (stereo in doubt) [IL-17Ai-3] | 72.8 nM | – | – | – | – | – | – | – | –
O=C(CCC(F)(F)F)N[C@@H](c1ccn2cc([C@@H](NC(=O)c3conc3CCC(F)(F)F)C3CCC(F)(F)CC3)nc2n1)C1CC1 [IL-17Ai-5] | 86.2 nM | – | – | – | – | – | – | – | –
OCCC#Cc1nc(-c2ccc(F)cc2)c(-c2ccncc2)n1CCCc1ccccc1 [Modulator P38i, RWJ 67657] | – | did not inhibit | does not inhibit G-CSF levels | did not lead to an overall reduction in expression of the gene panel | – | – | – | – | IC50 [2]: 11 nM; IC50 [3]: 3 nM
Cc1nc(Nc2n[nH]c3c2CN(C(=O)N[C@H](CN(C)C)c2ccccc2)C3(C)C)c2sccc2n1 [PAKi, PF-3758309] | – | did not inhibit | some dose-dependent inhibition of G-CSF production with much lower potency compared to IL-17A inhibitors | did not lead to an overall reduction in expression of the gene panel | – | – | – | – | IC50 ([1]; Homo sapiens, Keratinocyte): 2270 nM; G-CSF production ([1]; NHK, rhIL-17A, highest dose of 20 μM): reduced G-CSF production; cell toxicity ([5]; highest dose of 20 μM): toxic to the cells; cell toxicity ([5]; tested concentrations other than 20 μM PAK inhibitor): well tolerated
Brodalumab | – | inhibited G-CSF production at all concentrations tested | – | inhibited expression of the gene panel in a dose-dependent manner | inhibited G-CSF production | 0.082 nM | 0.07 nM | inhibited expression of the gene panel in a dose-dependent manner | –
Secukinumab | – | inhibited G-CSF production at all concentrations tested | – | inhibited expression of the gene panel in a dose-dependent manner | inhibited G-CSF production | 0.2 nM | 0.2 nM | inhibited expression of the gene panel in a dose-dependent manner | –

Source: patent US20230167497A1, “METHODS OF IDENTIFYING MODULATORS OF THE IL-17 PATHWAY” (Janssen Pharmaceutica NV, priority 2020, published 2023)
